Measurements published in PubChem BioAssay AID2060896 (Molecular Pharmacology Branch, DTP, NCI, 2025).

System: 941728-121-R-J1-PDC complex spheroid viability
Experiment: Anticancer human tumor 941728-121-R-J1-PDC patient-derived lung adenocarcinoma cell line growth inhibition [RAS]
Settings: for IC50: curve of first compound; for viability, T/C: stronger effect = lower value
Method in brief: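 Multi-cell-type spheroids: tumor cells plus HUVEC endothelial cells and mesenchymal stem cells. RAS-pathway inhibitors were combined with targeted agents, each dosed in half-log steps down from clinical Cmax, or from 10 microM when Cmax was unknown.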

[1] = second compound 0.000949 µM, first compound 0.0316 µM
[2] = second compound 0.000949 µM, first compound 0.1 µM
[3] = second compound 0.000949 µM, first compound 0.316 µM
[4] = second compound 0.000949 µM, first compound 1 µM
[5] = second compound 0.000949 µM, first compound 3.16 µM
[6] = second compound 0.000949 µM, first compound 10 µM
[7] = second compound 0.003 µM, first compound 0.0316 µM
[8] = second compound 0.003 µM, first compound 0.1 µM
[9] = second compound 0.003 µM, first compound 0.316 µM
[10] = second compound 0.003 µM, first compound 1 µM
[11] = second compound 0.003 µM, first compound 3.16 µM
[12] = second compound 0.003 µM, first compound 10 µM
[13] = second compound 0.00949 µM, first compound 0.0316 µM
[14] = second compound 0.00949 µM, first compound 0.1 µM
[15] = second compound 0.00949 µM, first compound 0.316 µM
[16] = second compound 0.00949 µM, first compound 1 µM
[17] = second compound 0.00949 µM, first compound 3.16 µM
[18] = second compound 0.00949 µM, first compound 10 µM
[19] = second compound 0.03 µM, first compound 0.0316 µM
[20] = second compound 0.03 µM, first compound 0.1 µM
[21] = second compound 0.03 µM, first compound 0.316 µM
[22] = second compound 0.03 µM, first compound 1 µM
[23] = second compound 0.03 µM, first compound 3.16 µM
[24] = second compound 0.03 µM, first compound 10 µM
[25] = second compound 0.0949 µM, first compound 0.0316 µM
[26] = second compound 0.0949 µM, first compound 0.1 µM
[27] = second compound 0.0949 µM, first compound 0.316 µM
[28] = second compound 0.0949 µM, first compound 1 µM
[29] = second compound 0.0949 µM, first compound 3.16 µM
[30] = second compound 0.0949 µM, first compound 10 µM
[31] = second compound 0.3 µM, first compound 0.0316 µM
[32] = second compound 0.3 µM, first compound 0.1 µM
[33] = second compound 0.3 µM, first compound 0.316 µM
[34] = second compound 0.3 µM, first compound 1 µM
[35] = second compound 0.3 µM, first compound 3.16 µM
[36] = second compound 0.3 µM, first compound 10 µM
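Note: spheroids exposed to compounds for 7 days before readout.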
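Throughout, for viability, T/C: 100% = DMSO vehicle control viability.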

CC1(O)CCCC1n1c(=O)c(C(F)F)cc2cnc(NC3CCN(S(C)(=O)=O)CC3)nc21 (stereo unspecified) + CCn1c(-c2cc(N3CCN(C)CC3)cnc2C(C)OC)c2c3cc(ccc31)-c1csc(n1)CC(NC(=O)C1CC1C)C(=O)N1CCCC(N1)C(=O)OCC(C)(C)C2 was tested, and the IC50 (second compound 0.000949 µM) was < 31.6 nM, the IC50 (second compound 0.003 µM) was < 31.6 nM and the IC50 (second compound 0.00949 µM) was < 31.6 nM. For the same compound, the IC50 (second compound 0.03 µM) was < 31.6 nM, the IC50 (second compound 0.0949 µM) was < 31.6 nM and the IC50 (second compound 0.3 µM) was < 31.6 nM. The viability, T/C [1] was 28.6%, the viability, T/C [2] was 30.3% and the viability, T/C [3] was 24.8%. For the same compound, the viability, T/C [4] was 38.3%, the viability, T/C [5] was 34.9% and the viability, T/C [6] was 31.3%. It also gave a viability, T/C [7] of 24.4%, a viability, T/C [8] of 20.1% and a viability, T/C [9] of 18.4%. It also gave a viability, T/C [10] of 22.3%, a viability, T/C [11] of 23.3% and a viability, T/C [12] of 26.9%. The viability, T/C [13] was 16.5%, the viability, T/C [14] was 13.6% and the viability, T/C [15] was 15.9%. For the same compound, the viability, T/C [16] was 17.5%, the viability, T/C [17] was 15.6% and the viability, T/C [18] was 28.4%. For the same compound, the viability, T/C [19] was 13.4%, the viability, T/C [20] was 12.6% and the viability, T/C [21] was 13.5%. It also gave a viability, T/C [22] of 14.4%, a viability, T/C [23] of 9.96% and a viability, T/C [24] of 27.3%. For the same compound, the viability, T/C [25] was 11.1%, the viability, T/C [26] was 14.5% and the viability, T/C [27] was 14.3%. The viability, T/C [28] was 14.8%, the viability, T/C [29] was 9.56% and the viability, T/C [30] was 27.7%. For the same compound, the viability, T/C [31] was 10.4%, the viability, T/C [32] was 11.6% and the viability, T/C [33] was 13.3%. The viability, T/C [34] was 15.2%, the viability, T/C [35] was 12.2% and the viability, T/C [36] was 23.8%.

With CCC(CC)c1cc(NC2CCC(N)C2)n2nccc2n1 (stereo unspecified) + CCn1c(-c2cc(N3CCN(C)CC3)cnc2C(C)OC)c2c3cc(ccc31)-c1csc(n1)CC(NC(=O)C1CC1C)C(=O)N1CCCC(N1)C(=O)OCC(C)(C)C2 the IC50 (second compound 0.000949 µM) was < 31.6 nM, the IC50 (second compound 0.003 µM) was < 31.6 nM and the IC50 (second compound 0.00949 µM) was < 31.6 nM. For the same compound, the IC50 (second compound 0.03 µM) was < 31.6 nM, the IC50 (second compound 0.0949 µM) was < 31.6 nM and the IC50 (second compound 0.3 µM) was < 31.6 nM. It also gave a viability, T/C [1] of 29.4%, a viability, T/C [2] of 28.1% and a viability, T/C [3] of 27.6%. It also gave a viability, T/C [4] of 32.5%, a viability, T/C [5] of 15% and a viability, T/C [6] of 41.4%. It also gave a viability, T/C [7] of 23.7%, a viability, T/C [8] of 21.6% and a viability, T/C [9] of 20.7%. For the same compound, the viability, T/C [10] was 26.8%, the viability, T/C [11] was 12.4% and the viability, T/C [12] was 39.3%. The viability, T/C [13] was 18%, the viability, T/C [14] was 16.2% and the viability, T/C [15] was 20.5%. The viability, T/C [16] was 24.7%, the viability, T/C [17] was 14.5% and the viability, T/C [18] was 41.5%. The viability, T/C [19] was 14.8%, the viability, T/C [20] was 15.4% and the viability, T/C [21] was 19%. It also gave a viability, T/C [22] of 21.2%, a viability, T/C [23] of 19.3% and a viability, T/C [24] of 51%. For the same compound, the viability, T/C [25] was 14.2%, the viability, T/C [26] was 15% and the viability, T/C [27] was 16.5%. It also gave a viability, T/C [28] of 21.4%, a viability, T/C [29] of 18.7% and a viability, T/C [30] of 50.8%. It also gave a viability, T/C [31] of 13.3%, a viability, T/C [32] of 15.2% and a viability, T/C [33] of 17.8%. It also gave a viability, T/C [34] of 20%, a viability, T/C [35] of 13.1% and a viability, T/C [36] of 49.1%.

CCN1CCN(Cc2ccc(Nc3ncc(F)c(-c4cc(F)c5nc(C)n(C(C)C)c5c4)n3)nc2)CC1 + CCn1c(-c2cc(N3CCN(C)CC3)cnc2C(C)OC)c2c3cc(ccc31)-c1csc(n1)CC(NC(=O)C1CC1C)C(=O)N1CCCC(N1)C(=O)OCC(C)(C)C2 was tested, and the IC50 (second compound 0.000949 µM) was < 3.16 nM, the IC50 (second compound 0.003 µM) was < 3.16 nM and the IC50 (second compound 0.00949 µM) was < 3.16 nM. The IC50 (second compound 0.03 µM) was < 3.16 nM, the IC50 (second compound 0.0949 µM) was < 3.16 nM and the IC50 (second compound 0.3 µM) was < 3.16 nM. The viability, T/C (second compound 0.000949 µM, first compound 0.00316 µM) was 27%, the viability, T/C (second compound 0.000949 µM, first compound 0.01 µM) was 29.4% and the viability, T/C [1] was 18.9%. For the same compound, the viability, T/C [2] was 27.1%, the viability, T/C [3] was 23.3% and the viability, T/C [4] was 16.6%. It also gave a viability, T/C (second compound 0.003 µM, first compound 0.00316 µM) of 22.8%, a viability, T/C (second compound 0.003 µM, first compound 0.01 µM) of 19.8% and a viability, T/C [7] of 14.4%. For the same compound, the viability, T/C [8] was 18.9%, the viability, T/C [9] was 17.7% and the viability, T/C [10] was 9.4%. It also gave a viability, T/C (second compound 0.00949 µM, first compound 0.00316 µM) of 15.1%, a viability, T/C (second compound 0.00949 µM, first compound 0.01 µM) of 13.4% and a viability, T/C [13] of 13.7%. It also gave a viability, T/C [14] of 11.1%, a viability, T/C [15] of 12.1% and a viability, T/C [16] of 10.4%. The viability, T/C (second compound 0.03 µM, first compound 0.00316 µM) was 13.2%, the viability, T/C (second compound 0.03 µM, first compound 0.01 µM) was 14.1% and the viability, T/C [19] was 11.8%. The viability, T/C [20] was 10.1%, the viability, T/C [21] was 6.16% and the viability, T/C [22] was 11.3%. For the same compound, the viability, T/C (second compound 0.0949 µM, first compound 0.00316 µM) was 13.4%, the viability, T/C (second compound 0.0949 µM, first compound 0.01 µM) was 11.8% and the viability, T/C [25] was 10.1%. It also gave a viability, T/C [26] of 9.14%, a viability, T/C [27] of 7.16% and a viability, T/C [28] of 9.08%. For the same compound, the viability, T/C (second compound 0.3 µM, first compound 0.00316 µM) was 11.3%, the viability, T/C (second compound 0.3 µM, first compound 0.01 µM) was 11.9% and the viability, T/C [31] was 11.7%. It also gave a viability, T/C [32] of 8.41%, a viability, T/C [33] of 6.3% and a viability, T/C [34] of 10.6%.
